Laboratory results reported in patent US9884048B2, “ERK inhibitors” (Merck Sharp & Dohme Corp., priority 2014, dated 2018).

target: phosphorylated active hERK2 enzyme (Homo sapiens (Human), UniProt P28482); conditions: read-out: ERK2 IC50; IMAP-FP assay; 0.5 nM hERK2, 30 μM ATP; 10 point titration, 3 μM starting concentration
Sequence (P28482 whole entry): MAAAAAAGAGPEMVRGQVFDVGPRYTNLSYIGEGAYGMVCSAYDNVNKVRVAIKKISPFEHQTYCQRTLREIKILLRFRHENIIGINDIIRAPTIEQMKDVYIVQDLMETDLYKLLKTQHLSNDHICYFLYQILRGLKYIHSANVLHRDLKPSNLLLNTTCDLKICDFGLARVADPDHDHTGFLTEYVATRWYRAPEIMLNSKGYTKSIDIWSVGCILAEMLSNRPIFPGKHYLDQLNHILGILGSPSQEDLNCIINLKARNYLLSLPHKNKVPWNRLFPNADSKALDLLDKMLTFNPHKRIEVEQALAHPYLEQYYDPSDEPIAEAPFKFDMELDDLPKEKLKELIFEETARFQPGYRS
Method: Active Human ERK2 (hERK2) Activity Assay:
Activated ERK2 activity was determined in an IMAP-FP assay (Molecular Devices). […] The final reaction in each well of 25 μL consists of 0.5 nM hERK2, 900 nM unlabeled peptide, 80 nM labeled-peptide, and 30 μM ATP. Phosphorylation reactions were allowed to proceed for 60 minutes and were immediately quenched by the addition of 60 μL IMAP detection beads (1:1000 dilutions) in IMAP binding buffer (Molecular Devices) with 24 mM NaCl. Plates were read on EnVision reader after 60 minutes binding equilibration using Fluorescence Polarization protocol (Perkin Elmer).

Going from Cc1cc(-n2ncc3cc(NC(=O)N[C@H]4CN(C)C[C@@H]4C)ncc32)ccn1 [Example 25, 1-[(3R,4S)-1,4-dimethylpyrrolidin-3-yl]-3-[1-(2-methylpyridin-4-yl)-1H-pyrazolo[3,4-c]pyridin-5-yl]urea] to Cc1cc(-n2ncc3cc(NC(=O)N[C@H]4CN(C)C[C@@H]4C4CC4)ncc32)ccn1 [Example 30, 1-[(3R,4S)-4-cyclopropyl-1-methylpyrrolidin-3-yl]-3-[1-(2-methylpyridin-4-yl)-1H-pyrazolo[3,4-c]pyridin-5-yl]urea], the IC50 rises from 66.4 nM to 110 nM (1.7-fold). The first is the more potent here.

Going from Cc1cc(-n2ncc3cc(NC(=O)N[C@@H]4C[C@H](C)N(C)C4)ncc32)ccn1 [Example 26, 1-[(3R,5S)-1,5-dimethylpyrrolidin-3-yl]-3-[1-(2-methylpyridin-4-yl)-1H-pyrazolo[3,4-c]pyridin-5-yl]urea] to CCN1CC[C@@H](NC(=O)Nc2cc3cnn(-c4ccnc(C)c4)c3cn2)C1 [Example 28, 1-[(3R)-1-ethylpyrrolidin-3-yl]-3-[1-(2-methylpyridin-4-yl)-1H-pyrazolo[3,4-c]pyridin-5-yl]urea], the IC50 falls from 275 nM to 104 nM (2.6-fold). The second is the more potent here.

Going from Cc1cc(-n2ncc3cc(NC(=O)NCC4CN(C(C)C(F)(F)F)C4)ncc32)ccn1 (stereo not shown) [Example 27, 1-[1-(2-methylpyridin-4-yl)-1H-pyrazolo[3,4-c]pyridin-5-yl]-3-{[1-(2,2,2-trifluoro-1-methylethyl)azetidin-3-yl]methyl}urea] to CCCN1CC[C@@H](NC(=O)Nc2cc3cnn(-c4ccnc(C)c4)c3cn2)C1 [Example 29, 1-[1-(2-methylpyridin-4-yl)-1H-pyrazolo[3,4-c]pyridin-5-yl]-3-[(3R)-1-propylpyrrolidin-3-yl]urea], the IC50 rises from 122 nM to 453 nM (3.7-fold). The first is the more potent here.

Compared with Cc1cc(-n2ncc3cc(NC(=O)N[C@H]4CN(C)C[C@@H]4C4CCCCC4)ncc32)ccn1 [Example 31, 1-[(3R,4S)-4-cyclohexyl-1-methylpyrrolidin-3-yl]-3-[1-(2-methylpyridin-4-yl)-1H-pyrazolo[3,4-c]pyridin-5-yl]urea], Cc1cc(-n2ncc3cc(NC(=O)NC4CN(C)CC4c4ccccc4)ncc32)ccn1 (stereo not shown) [Example 57, 1-(1-methyl-4-phenylpyrrolidin-3-yl)-3-[1-(2-methylpyridin-4-yl)-1H-pyrazolo[3,4-c]pyridin-5-yl]urea] is 43-fold lower in IC50: 35.1 nM for the first, 0.823 nM for the second.

Compared with Cc1cc(-n2ncc3cc(NC(=O)NCc4cccc(NS(C)(=O)=O)c4)ncc32)ccn1 [Example 32, N-{3-[({[1-(2-methylpyridin-4-yl)-1H-pyrazolo[3,4-c]pyridin-5-yl]carbamoyl}amino)methyl]phenyl}methanesulfonamide], Cc1cc(-n2ncc3cc(NC(=O)NCc4ccccc4)ncc32)ccn1 [Example 58, 1-benzyl-3-[1-(2-methylpyridin-4-yl)-1H-pyrazolo[3,4-c]pyridin-5-yl]urea] is 19-fold higher in IC50: 0.442 nM for the first, 8.41 nM for the second. The first is the more potent here.

Going from COC[C@@H](NC(=O)Nc1cc2cnn(-c3ccnc(C)c3)c2cn1)c1ccc(F)cc1 [Example 33, 1-[(1S)-1-(4-fluorophenyl)-2-methoxyethyl]-3-[1-(2-methylpyridin-4-yl)-1H-pyrazolo[3,4-c]pyridin-5-yl]urea] to Cc1cc(-n2ncc3cc(NC(=O)NC(C)c4ccc(OC(F)(F)F)cc4)ncc32)ccn1 (stereo not shown) [Example 47], the IC50 falls from 590 nM to 40.3 nM (15-fold).

First: Cc1cc(-n2ncc3cc(NC(=O)N[C@@H]4CCN(c5ccc(F)cc5)C4)ncc32)ccn1 [Example 34, 1-[(3R)-1-(4-fluorophenyl)pyrrolidin-3-yl]-3-[1-(2-methylpyridin-4-yl)-1H-pyrazolo[3,4-c]pyridin-5-yl]urea]
Second: Cc1cc(-n2ncc3cc(NC(=O)NCc4cnn(-c5ccc(F)cc5)c4)ncc32)ccn1 [Example 60, 1-{[1-(4-fluorophenyl)-1H-pyrazol-4-yl]methyl}-3-[1-(2-methylpyridin-4-yl)-1H-pyrazolo[3,4-c]pyridin-5-yl]urea]
The IC50 of the first is 2.1-fold lower: 762 nM for the first, 1630 nM for the second.

Compared with Cn1cc2cc(-n3ncc4cc(NC(=O)NC(c5ccccc5)c5cnco5)ncc43)ccc2n1 (stereo not shown) [Example 35, 1-[1-(2-methyl-2H-indazol-5-yl)-1H-pyrazolo[3,4-c]pyridin-5-yl]-3-[1,3 oxazol-5-yl(phenyl)methyl]urea], Cc1cc(-n2ncc3cc(NC(=O)N[C@H](C)c4ccccc4)ncc32)ccn1 [Example 59, 1-[1-(2-methylpyridin-4-yl)-1H-pyrazolo[3,4-c]pyridin-5-yl]-3-[(1R)-1-phenylethyl]urea] is 1.5-fold lower in IC50: 1.56 nM for the first, 1.01 nM for the second. The second is the more potent here.

Compared with O=C(NCc1ccccc1)Nc1cc2cnn(-c3ccc(F)cc3)c2cn1 [Example 37, 1-benzyl-3-[1-(4-fluorophenyl)-1H-pyrazolo[3,4-c]pyridin-5-yl)urea], O=C(NCc1ccc(Cl)cc1)Nc1cc2cnn(-c3ccncc3)c2cn1 [Example 42, 1-(4-chlorobenzyl)-3-(1-pyridin-4-yl-1H-pyrazolo[3,4-c]pyridin-5-yl)urea] is 2.5-fold lower in IC50: 19.8 nM for the first, 8.03 nM for the second.

Going from O=C(Nc1cc2cnn(-c3ccncc3)c2cn1)N[C@@H](c1ccccc1)C(F)(F)F [Example 38, 1-(1-pyridin-4-yl-1H-pyrazolo[3,4-c]pyridin-5-yl)-3-[(1S)-2,2,2-trifluoro-1-phenylethyl]urea] to O=C(NCCc1ccccc1F)Nc1cc2cnn(-c3ccncc3)c2cn1 [Example 40, 1-[2-(2-fluorophenyl)ethyl]-3-(1-pyridin-4-yl-1H-pyrazolo[3,4-c]pyridin-5-yl)urea], the IC50 falls from 19.4 nM to 9.2 nM (2.1-fold). The second is the more potent here.

Compared with O=C(NCc1cccnc1)Nc1cc2cnn(-c3ccncc3)c2cn1 [Example 39, 1-(pyridin-3-ylmethyl)-3-(1-pyridin-4-yl-1H-pyrazolo[3,4-c]pyridin-5-yl)urea], O=C(NCc1cccc(Cl)c1)Nc1cc2cnn(-c3ccncc3)c2cn1 [Example 41, 1-(3-chlorobenzyl)-3-(1-pyridin-4-yl-1H-pyrazolo[3,4-c]pyridin-5-yl)urea] is 340-fold lower in IC50: 171 nM for the first, 0.499 nM for the second.

Going from Cc1cc(-n2ncc3cc(NC(=O)N[C@H](C)c4cccc(Cl)c4)ncc32)ccn1 [Example 43, 1-[(1R)-1-(3-chlorophenyl)ethyl]-3-[1-(2-methylpyridin-4-yl)-1H-pyrazolo[3,4-c]pyridin-5-yl]urea] to Cc1cc(-n2ncc3cc(NC(=O)N[C@H](C)c4ccccc4Cl)ncc32)ccn1 [Example 44, 1-[(1R)-1-(2-chlorophenyl)ethyl]-3-[1-(2-methylpyridin-4-yl)-1H-pyrazolo[3,4-c]pyridin-5-yl]urea], the IC50 rises from 0.952 nM to 15.6 nM (16-fold). The first is the more potent here.

Compared with Cc1cc(-n2ncc3cc(NC(=O)NC(C)c4ccc(-n5cncn5)cc4)ncc32)ccn1 (stereo not shown) [Example 45, 1-[1-(2-methylpyridin-4-yl)-1H-pyrazolo[3,4-c]pyridin-5-yl]-3-{1-[4-(1H-1,2,4-triazol-1-yl)phenyl]ethyl}urea], Cc1cc(-n2ncc3cc(NC(=O)NC(C)c4cccc(OC(F)(F)F)c4)ncc32)ccn1 (stereo not shown) [Example 48, 1-[1-(2-methylpyridin-4-yl)-1H-pyrazolo[3,4-c]pyridin-5-yl]-3-{1-[3-(trifluoromethoxy)phenyl]ethyl}urea] is 16-fold lower in IC50: 166 nM for the first, 10.7 nM for the second.

Compared with Cc1cc(-n2ncc3cc(NC(=O)NC4CC(C)(C)Oc5ccccc54)ncc32)ccn1 (stereo not shown) [Example 46, 1-(2,2-dimethyl-3,4-dihydro-2H-chromen-4-yl)-3-[1-(2-methylpyridin-4-yl)-1H-pyrazolo[3,4-c]pyridin-5-yl]urea], Cc1cc(-n2ncc3cc(NC(=O)NC(CN)c4ccccc4)ncc32)ccn1 (stereo not shown) [Example 62, 1-(2-amino-1-phenylethyl)-3-[1-(2-methylpyridin-4-yl)-1H-pyrazolo[3,4-c]pyridin-5-yl]urea] is 180-fold lower in IC50: 174 nM for the first, 0.962 nM for the second. The second is the more potent here.

Compared with Cc1cc(-n2ncc3cc(NC(=O)NCC(CO)c4ccccc4)ncc32)ccn1 (stereo not shown) [Example 49, 1-(3-hydroxy-2-phenylpropyl)-3-[1-(2-methylpyridin-4-yl)-1H-pyrazolo[3,4-c]pyridin-5-yl]urea], Cc1cc(-n2ncc3cc(NC(=O)NC(CCN(C)C)c4ccccc4)ncc32)ccn1 (stereo not shown) [Example 51, 1-[3-(dimethylamino)-1-phenylpropyl]-3-[1-(2-methylpyridin-4-yl)-1H-pyrazolo[3,4-c]pyridin-5-yl)urea] is 2.8-fold lower in IC50: 7.66 nM for the first, 2.7 nM for the second. The second is the more potent here.

Cc1cc(-n2ncc3cc(NC(=O)NCC(c4ccccc4)N4CCCCC4)ncc32)ccn1 (stereo not shown) [Example 50, 1-[1-(2-methylpyridin-4-yl)-1H-pyrazolo[3,4-c]pyridin-5-yl]-3-(2-phenyl-2-piperidin-1-ylethyl)urea] and Cc1cc(-n2ncc3cc(NC(=O)NCC(c4ccc(F)cc4)N4CCCCC4)ncc32)ccn1 (stereo not shown) [Example 54, 1-[2-(4-fluorophenyl)-2-piperidin-1-ylethyl]-3-[1-(2-methylpyridin-4-yl)-1H-pyrazolo[3,4-c]pyridin-5-yl)urea] are within 1.5-fold of each other in IC50: 198 nM for the first, 195 nM for the second.

Compared with Cc1cc(-n2ncc3cc(NC(=O)NCC4(c5ccccc5)CCOCC4)ncc32)ccn1 [Example 52, 1-[1-(2-methylpyridin-4-yl)-1H-pyrazolo[3,4-c]pyridin-5-yl]-3-[(4-phenyltetrahydro-2H-pyran-4-yl)methyl]urea], Cc1cc(-n2ncc3cc(NC(=O)NCC(F)(F)c4ccccc4)ncc32)ccn1 [Example 61, 1-(2,2-difluoro-2-phenylethyl)-3-[1-(2-methylpyridin-4-yl)-1H-pyrazolo[3,4-c]pyridin-5-yl]urea] is 27-fold higher in IC50: 7.09 nM for the first, 193 nM for the second.

Going from Cc1cc(-n2ncc3cc(NC(=O)NC(CCN4CCCCC4)c4ccccc4)ncc32)ccn1 (stereo not shown) [Example 53, 1-[1-(2-methylpyridin-4-yl)-1H-pyrazolo[3,4-c]pyridin-5-yl]-3-(1-phenyl-3-piperidin-1-ylpropyl)urea] to Cc1cc(-n2ncc3cc(NC(=O)NCC(c4ccccc4)N4CCC(F)(F)CC4)ncc32)ccn1 (stereo not shown) [Example 55, 1-[2-(4,4-difluoropiperidin-1-yl)-2-phenylethyl]-3-[1-(2-methylpyridin-4-yl)-1H-pyrazolo[3,4-c]pyridin-5-yl]urea], the IC50 rises from 49.2 nM to 85.1 nM (1.7-fold). The first is the more potent here.

In the case of COc1cccc(F)c1CN1CCC[C@@H](NC(=O)Nc2cc3cnn(-c4ccnc(C)c4)c3cn2)C1 [Example 56, 1-[(3R)-1-(2-fluoro-6-methoxybenzyl)piperidin-3-yl]-3-[1-(2-methylpyridin-4-yl)-1H-pyrazolo[3,4-c]pyridin-5-yl]urea], the IC50 is reported as 0.524 nM.
